# Results as given in ChEMBL document CHEMBL1153850, “Novel derivatives of 6-mercaptopurine: synthesis, characterization and antiproliferative activities of S-allylthio-mercaptopurines” (Eur J Med Chem, 2009).
# pIC50: −log10 of the molar value. Active and inactive are the calls of the source. The rule behind the calls is not given here.
# Experiments:
# HT-29 [1] = experiment: Cytotoxicity against multidrug-resistant human HT-29 cells assessed as inhibition of epithelial-like growth at 150 uM after 16 hrs using propidium iodide staining by phase-contrast microscopy; format: functional, cell-based
# NCI-N87 [2] = experiment: Antiproliferative activity against human NCI-N87 cells assessed as [methyl-3H]thymidine incorporation after 16 hrs by XTT assay; format: functional, cell-based; settings: for pIC50: NCI-N87, 16 h
# MOLT-4 = experiment: Antiproliferative activity against human MOLT4 cells assessed as [methyl-3H]thymidine incorporation after 16 hrs by XTT assay; format: functional, cell-based; settings: MOLT-4, 16 h
# HeLa [3] = experiment: Antiproliferative activity against human HeLa cells assessed as [methyl-3H]thymidine incorporation after 16 hrs by XTT assay; format: functional, cell-based
# NCI-N87 [4] = experiment: Antiproliferative activity against human NCI-N87 at 100 uM assessed as [methyl-3H]thymidine incorporation after 16 hrs by XTT assay relative to control; format: functional, cell-based
# Daudi [5] = experiment: Cytotoxicity against human Daudi cells assessed as residual cell viability at 50 uM after 16 hrs by trypan blue exclusion assay relative to control; format: functional
# Jurkat = experiment: Antiproliferative activity against human Jurkat cells assessed as [methyl-3H]thymidine incorporation after 16 hrs by XTT assay; format: functional, cell-based
# HL-60 [6] = experiment: Antiproliferative activity against human HL60 cells assessed as [methyl-3H]thymidine incorporation after 16 hrs by XTT assay; format: functional, cell-based; settings: HL-60, 16 h
# Daudi [7] = experiment: Antiproliferative activity against human Daudi cells assessed as [methyl-3H]thymidine incorporation after 16 hrs by XTT assay; format: functional, cell-based
# [8] = Cytotoxicity against human B-CLL cells assessed as residual cell viability at 150 uM after 16 hrs by trypan blue exclusion assay relative to control; format: functional
# HT-29 [9] = experiment: Induction of multidrug-resistant human HT-29 cell death at 150 uM after 16 hrs using propidium iodide staining by fluorescence microscopy; format: functional, cell-based
# NCI-N87 [10] = experiment: Antiproliferative activity against human NCI-N87 cells assessed as residual proliferation at 50 uM after 16 hrs by XTT assay; format: functional
# Daudi [11] = experiment: Antiproliferative activity against human Daudi cells at <=20 uM assessed as [methyl-3H]thymidine incorporation after 16 hrs by XTT assay relative to control; format: functional
# [12] = Induction of apoptosis in human B-CLL cells assessed as increase in apoptotic cells at 50 uM after 16 hrs by FACS analysis; format: functional
# HeLa [13] = experiment: Antiproliferative activity against human HeLa cells at 110 uM assessed as [methyl-3H]thymidine incorporation after 16 hrs by XTT assay relative to control; format: functional, cell-based
# [14] = Induction of apoptosis in human B-CLL cells assessed as increase in apoptotic cells at 100 uM after 16 hrs by FACS analysis; format: functional
# Daudi [15] = experiment: Antiproliferative activity against human Daudi cells at 50 uM after 16 hrs by XTT assay; format: functional
# HeLa [16] = experiment: Cytotoxicity against human HeLa cells assessed as reduced cell viability at 150 uM by trypan blue exclusion assay relative to control; format: functional
# HT-29 [17] = experiment: Cytotoxicity against multidrug-resistant human HT-29 cells assessed as reduced cell viability at 150 uM by trypan blue exclusion assay relative to control; format: functional
# U-937 = experiment: Antiproliferative activity against human U937 cells assessed as [methyl-3H]thymidine incorporation after 16 hrs by XTT assay; format: functional, cell-based; settings: U-937, 16 h
# HL-60 [18] = experiment: Antiproliferative activity against human HL60 cells assessed as cell viability after 16 hrs by [methyl-3H]thymidine incorporation based XTT assay relative to control; format: functional
# HeLa [19] = experiment: Antiproliferative activity against human HeLa cells assessed as cell viability after 16 hrs by [methyl-3H]thymidine incorporation based XTT assay relative to control; format: functional
# NCI-N87 [20] = experiment: Antiproliferative activity against human NCI-N87 cells at 150 uM after 16 hrs by XTT assay; format: functional
# NCI-N87 [21] = experiment: Antiproliferative activity against human NCI-N87 cells assessed as residual proliferation at 100 uM after 16 hrs by XTT assay; format: functional
# Daudi [22] = experiment: Antiproliferative activity against human Daudi cells assessed as residual proliferation at 50 uM after 16 hrs by XTT assay; format: functional
# HT-29 [23] = experiment: Antiproliferative activity against multidrug-resistant human HT-29 cells assessed as [methyl-3H]thymidine incorporation after 16 hrs by XTT assay; format: functional, cell-based; settings: HT-29, 16 h
# Daudi [24] = experiment: Antiproliferative activity against human Daudi cells assessed as residual proliferation at 100 uM after 16 hrs by XTT assay; format: functional
# [25] = Induction of apoptosis in human B-CLL cells after 48 hrs by FACS analysis; format: functional, cell-based
# HeLa [26] = experiment: Cytotoxicity against human HeLa cells assessed as reduced cell viability at 200 uM by trypan blue exclusion assay relative to control; format: functional
# [27] = Antiproliferative activity against human B-CLL cells assessed as cell viability after 16 hrs by trypan blue exclusion assay; format: functional, cell-based
# PBMC = experiment: Inhibition of T cell mitogen-induced blastogenesis in human PBMC after 4 days; format: functional, cell-based; settings: 96 h
# [28] = Induction of apoptosis in human B-CLL cells assessed as increase in apoptotic cells at 150 uM after 16 hrs by FACS analysis; format: functional
SMILES,pIC50 (MOLT-4),pIC50 (Jurkat),pIC50 (HL-60 [6]),pIC50 (Daudi [7]),pIC50 (U-937),pIC50 (HeLa [3]),pIC50 (HT-29 [23]),Activity (HT-29 [1]),Activity (NCI-N87 [2]),pIC50 (NCI-N87 [2]),Activity (HeLa [3]),Activity (NCI-N87 [4]),Activity (Daudi [7]),Activity (NCI-N87 [10]) [%],Activity (Daudi [11]),Activity [12] [%],Activity (HeLa [13]),Activity [14] [%],Activity (NCI-N87 [20]),pIC50 (PBMC),further results
OC[C@@H]1O[C@H](n2cnc3c(S)ncnc32)[C@@H](O)[C@H]1O,4.61,4.00,–,–,< 3.70,–,–,–,–,–,–,–,–,–,–,–,–,–,75%,–,Activity (HL-60 [18]): inactive; Activity (HeLa [19]): inactive
C=CCS[S+]([O-])CC=C (stereo not drawn) [ALLICIN],–,–,5.26,4.45,4.71,–,4.08,–,–,4.77,–,–,–,–,–,–,–,–,–,–,pIC50 [25]: 4.70
Cn1cnc([N+](=O)[O-])c1Sc1ncnc2[nH]cnc12 [AZATHIOPRINE],–,–,–,–,–,–,–,–,–,–,–,–,–,–,–,–,–,–,–,6.64,–

# Continued, in another order:
pIC50 (MOLT-4),pIC50 (Jurkat),pIC50 (HL-60 [6]),pIC50 (Daudi [7]),pIC50 (U-937),pIC50 (HeLa [3]),pIC50 (HT-29 [23]),SMILES,Activity (HT-29 [1]),Activity (NCI-N87 [2]),pIC50 (NCI-N87 [2]),Activity (HeLa [3]),Activity (NCI-N87 [4]),Activity (Daudi [7]),Activity (NCI-N87 [10]) [%],Activity (Daudi [11]),Activity [12] [%],Activity (HeLa [13]),Activity [14] [%],Activity (NCI-N87 [20]),pIC50 (PBMC),further results
5.05,4.26,4.38,4.42,4.33,–,–,C=CCSSc1ncnc2nc[nH]c12,Active,Dose-dependent effect,4.15,Dose-dependent effect,Active,Dose-dependent effect,50,50%,37.88,Active,95.26,–,–,Activity (Daudi [5]): 20%; Activity [8]: 75%; Activity (HT-29 [9]): Active; Activity (Daudi [15]): 15%; Activity (HeLa [16]): 65%; Activity (HT-29 [17]): 40%
4.77,4.16,4.06,4.15,3.95,< 3.70,< 3.70,C=CCSSc1ncnc2c1ncn2[C@H]1O[C@@H](CO)[C@H](O)[C@@H]1O,–,–,3.92,–,–,–,70,–,–,–,–,Active,–,Activity (NCI-N87 [21]): 55%; Activity (Daudi [22]): 60%; Activity (Daudi [24]): 25%
4.30,< 3.70,–,< 3.70,< 3.70,< 3.70,< 3.70,Sc1ncnc2nc[nH]c12 [MERCAPTOPURINE ANHYDROUS],inactive,Dose-dependent effect,–,Dose-dependent effect,inactive,Dose-dependent effect,–,inactive,9.78,inactive,9.7,80%,6.83,Activity (HeLa [26]): 75%; pIC50 [27]: < 3.70; Activity [28]: 8.68%
